Results reported in patent publication US10130590B2, “Methods of treating cancer with atovaquone-related compounds” (DANA-FARBER CANCER INSTITUTE, INC., priority 2013, dated 2018).

How the values were obtained:
[1] = test system: non-malignant peripheral blood mononuclear cells (PBMC); assay: Cell viability (Cell Titer Glo), PBMC; assay type: cell-based; conditions: 72 hours, healthy donors
Protocol: Mouse embryonic fibroblasts (MEFs) were cultured in DMEM+10% FBS. TSC2-null (see, Zhang et al. J Clin Invest. 2003; 112(8):1223-1233) and REDD1-null (see, Sofer et al. Mol. Cell. Biol. July 2005 vol. 25 no. 14 5834-5845) MEFs, along with MEFs from the littermate controls, were kind gifts from Dr. John Blenis and Dr. Leif Ellisen, respectively. HEL (see, Iwama et al. Mol. Cell. Biol. June 1999 vol. 19 no. 6 3940-3950) was a kind gift of Dr. Daniel G. Tenen and grown in RPMI-1640+10% FBS. OCI-AML2 and OCI-AML3 (see, Grunberger et al. Blood Dec. 1, 2003 vol. 102 no. 12 4153-4158), and MOLM-13 (German Collection of Microorganisms and Cell Cultures (DSMZ, Braunschweig, Germany)) were kind gifts of Dr. James D. Griffin and grown in RPMI-1640+10% FBS. MM.1S (ATCC) was a kind gift of Dr. Kenneth C. Anderson and grown in RPMI-1640+10% FBS. SET2 (see, Koppikar et al. Nature 489, 155-159 (6 Sep. 2012)) was a kind gift of Dr. Ross L. Levine and grown in RPMI-1640+10% FBS. HL60 (ATCC) was a kind gift of Dr. James D. Griffin and grown in RPMI-1640+10% FBS. […] Molecular Pharmacology 78(5):903-908; and Walker S R, et al. (2009) Reciprocal effects of STAT5 and STAT3 in breast cancer. Molecular Cancer Research: MCR 7(6):966-976). Peripheral blood mononuclear cells (PBMCs) were isolated from healthy donors by Ficoll density gradient centrifugation and maintained in RPMI-1640+10% FBS. […]

[2] = test system: INA-6, U266 and HEL cells; assay: Annexin V/PI flow cytometry in STAT3-dependent cancer cells; assay type: cell-based; conditions: INA-6 15 μM 24 hours; U266 and HEL 20 μM 48 hours
Protocol: Annexin V/PI staining was performed using Annexin V:FITC Apoptosis Detection Kit I (BD Biosciences). Staining for cell cycle analysis was performed as previously described (267). Staining for cell-surface receptors was performed in 50 μl PBS+2% FBS with 2 μl antibody to IL6R (BioLegend #352803) or 5 μl antibody to gp130 (BD Biosciences #555757) for 20 minutes on ice in the dark. Cells were washed twice, then resuspended in 300 μl of the same buffer. Samples were analyzed on a BD FACSCanto II machine. Transfection and siRNA Cells were reverse-transfected using Lipofectamine RNAiMAX (Invitrogen); the culture medium was changed 24 hours later. Control siRNA (D-001210-02) and REDD1 siRNA (M-010855-01) were from Thermo Scientific Dharmacon.
Next, the effect of atovaquone on the growth and survival of STAT3-dependent cancer cells was examined Survival of the multiple myeloma cell line INA-6 is exquisitely dependent on IL-6 added to culture medium and resultant STAT3 activation. […] The other cell lines with constitutively-active STAT3, U266 and HEL, were also killed by atovaquone.

**Q.** Which results are given for O=C1C(O)=C([C@H]2CC[C@H](c3ccc(Cl)cc3)CC2)C(=O)c2ccccc21 [atovaquone, trans-2-[4-(4-chlorophenyl)cyclohexyl]-3-hydroxy-1,4-naphthalenedione]?
**A.** viability of PBMC [1]: relatively preserved; apoptosis (annexin V and PI staining) [2]: inducing apoptotic cell death
